Assay results reported in PubChem BioAssay (NCI).
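Method: 48-hour compound exposure of cells in 96-well plates, five concentrations, linear interpolation of endpoints. Abbreviation: GI50, concentration required for 50% inhibition of growth. TGI: concentration producing complete growth inhibition.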

What was measured:
Experiment in all cases: DTP human tumour cell line panel, 48 h
[1] = tested on: M14 melanoma
[2] = tested on: A498 renal
[3] = tested on: SK-MEL-5 melanoma
[4] = tested on: MDA-MB-468 breast
[5] = tested on: T-47D breast
[6] = tested on: SF-539 CNS
[7] = tested on: HT29 colon
[8] = tested on: LOX IMVI melanoma
[9] = tested on: UACC-257 melanoma
[10] = tested on: HOP-92 NSCLC
[11] = tested on: SF-268 CNS
[12] = tested on: TK-10 renal
[13] = tested on: ACHN renal
[14] = tested on: UACC-62 melanoma
[15] = tested on: RPMI-8226 leukemia
[16] = tested on: OVCAR-5 ovarian
[17] = tested on: DU-145 prostate
[18] = tested on: CCRF-CEM leukemia
[19] = tested on: UO-31 renal
[20] = tested on: NCI-H522 lung
[21] = tested on: IGROV1 ovarian
[22] = tested on: 786-0 renal
[23] = tested on: HCT-15 colon
[24] = tested on: NCI-H460 lung
[25] = tested on: EKVX NSCLC
[26] = tested on: MALME-3M melanoma
[27] = tested on: HOP-62 NSCLC
[28] = tested on: NCI/ADR-RES ovarian
[29] = tested on: HCC-2998 colon
[30] = tested on: SR leukemia
[31] = tested on: PC-3 prostate
[32] = tested on: K-562 leukemia
[33] = tested on: SW-620 colon
[34] = tested on: SF-295 CNS
[35] = tested on: MOLT-4 leukemia
[36] = tested on: MDA-MB-231 breast
[37] = tested on: OVCAR-3 ovarian
[38] = tested on: COLO 205 colon
[39] = tested on: OVCAR-4 ovarian
[40] = tested on: MDA-MB-435
[41] = tested on: SK-OV-3 ovarian
[42] = tested on: SK-MEL-28 melanoma
[43] = tested on: SK-MEL-2 melanoma
[44] = tested on: OVCAR-8 ovarian
[45] = tested on: A549 NSCLC
[46] = tested on: HCT-116 colon
[47] = tested on: HS 578T breast
[48] = tested on: KM12 colon
[49] = tested on: SNB-19 CNS
[50] = tested on: NCI-H226 lung
[51] = tested on: MCF7 breast
[52] = tested on: SN12C renal
[53] = tested on: RXF 393 renal
[54] = tested on: HL-60(TB) leukemia
[55] = tested on: CAKI-1 renal
[56] = tested on: NCI-H23 lung
[57] = tested on: BT-549 breast
[58] = tested on: U251 CNS

With `O=C(NNc1nc2cc(F)ccc2n2c(CN3CC4CNCC4C3)ccc12)c1ccncn1` (stereo unspecified) the GI50 [1] was 0.804 µM, the TGI [1] was 4.74 µM and the GI50 [2] was 24.9 µM. For the same compound, the TGI [2] was 40.4 µM, the GI50 [3] was 1.52 µM and the TGI [3] was 8.29 µM. For the same compound, the GI50 [4] was 1.21 µM, the TGI [4] was 3.57 µM and the GI50 [5] was 3.11 µM. For the same compound, the TGI [5] was 14.7 µM, the GI50 [6] was 1.56 µM and the TGI [6] was 6.4 µM. The GI50 [7] was 2.02 µM, the TGI [7] was 18.1 µM and the GI50 [8] was 1 µM. It also gave a TGI [8] of 4.05 µM, a GI50 [9] of 3.16 µM and a TGI [9] of 11 µM. The GI50 [10] was 0.0544 µM, the TGI [10] was 6.37 µM and the GI50 [11] was 1.71 µM. The TGI [11] was 15 µM, the GI50 [12] was 0.648 µM and the TGI [12] was 16.4 µM. It also gave a GI50 [13] of 0.62 µM, a TGI [13] of 11.2 µM and a GI50 [14] of 1.19 µM. The TGI [14] was 3.41 µM, the GI50 [15] was 1.95 µM and the TGI [15] was 10.8 µM. The GI50 [16] was 2.49 µM, the TGI [16] was 17.5 µM and the GI50 [17] was 3.26 µM. The TGI [17] was 15.7 µM, the GI50 [18] was 1.55 µM and the TGI [18] was 6.18 µM. The GI50 [19] was 0.822 µM, the TGI [19] was 11.7 µM and the GI50 [20] was 2.36 µM. It also gave a TGI [20] of 11.7 µM, a GI50 [21] of 2.36 µM and a TGI [21] of 13.3 µM. The GI50 [22] was 0.5 µM, the TGI [22] was 11.3 µM and the GI50 [23] was 0.746 µM. It also gave a TGI [23] of 15.9 µM, a GI50 [24] of 0.591 µM and a TGI [24] of 16.1 µM. The GI50 [25] was 0.441 µM, the TGI [25] was 9.23 µM and the GI50 [26] was 2.17 µM. It also gave a TGI [26] of 8.75 µM, a GI50 [27] of 0.686 µM and a TGI [27] of 12.1 µM. It also gave a GI50 [28] of 11.5 µM, a TGI [28] of 29.9 µM and a GI50 [29] of 3.05 µM. For the same compound, the TGI [29] was 17.5 µM, the GI50 [30] was 0.751 µM and the TGI [30] was 9.24 µM. It also gave a GI50 [31] of 2.11 µM, a TGI [31] of 15.4 µM and a GI50 [32] of 1.76 µM. For the same compound, the TGI [32] was 11.9 µM, the GI50 [33] was 2.55 µM and the TGI [33] was 23.1 µM. The GI50 [34] was 0.421 µM, the TGI [34] was 10.7 µM and the GI50 [35] was 1.45 µM. The TGI [35] was 9.6 µM, the GI50 [36] was 2.31 µM and the TGI [36] was 16.2 µM. The GI50 [37] was 3.26 µM, the TGI [37] was 17.3 µM and the GI50 [38] was 3.05 µM. For the same compound, the TGI [38] was 12.1 µM, the GI50 [39] was 1.56 µM and the TGI [39] was 17.3 µM. For the same compound, the GI50 [40] was 3.68 µM, the TGI [40] was 17.6 µM and the GI50 [41] was 0.984 µM. It also gave a TGI [41] of 12.1 µM, a GI50 [42] of 2.36 µM and a TGI [42] of 14.1 µM. It also gave a GI50 [43] of 2.65 µM, a TGI [43] of 14.7 µM and a GI50 [44] of 1.29 µM. For the same compound, the TGI [44] was 10.4 µM, the GI50 [45] was 2.09 µM and the TGI [45] was 14.9 µM. For the same compound, the GI50 [46] was 0.73 µM, the TGI [46] was 13.7 µM and the GI50 [47] was 10 µM. The TGI [47] was 81.9 µM, the GI50 [48] was 1.78 µM and the TGI [48] was 16.2 µM. The GI50 [49] was 2.67 µM, the TGI [49] was 16.6 µM and the GI50 [50] was 0.943 µM. It also gave a TGI [50] of 6.73 µM, a GI50 [51] of 2 µM and a TGI [51] of 12.1 µM. For the same compound, the GI50 [52] was 1.79 µM, the TGI [52] was 11.8 µM and the GI50 [53] was 1.58 µM. It also gave a TGI [53] of 12.8 µM, a GI50 [54] of 1.23 µM and a TGI [54] of 4.51 µM. It also gave a GI50 [55] of 0.654 µM, a TGI [55] of 12.8 µM and a GI50 [56] of 2.31 µM. For the same compound, the TGI [56] was 10.4 µM, the GI50 [57] was 1.59 µM and the TGI [57] was 13.2 µM. For the same compound, the GI50 [58] was 0.78 µM and the TGI [58] was 12.2 µM.
